This note sets out measurements from patent publication US8921406B2, “5-ring heteroaromatic compounds and their use as binding partners for 5-HT5 receptors” (AbbVie Deutschland GmbH & Co. KG, priority 2005, dated 2014).

Where a name gives a salt, the structure may show the parent alone.

As usually defined, the Ki is a measure of affinity in units of concentration, obtained from inhibition or displacement.

The experiment deals with T1, h5-HT5A receptor (Homo sapiens, UniProt P47898).
T1 construct: expressed in transfected cells
T1 sequence (P47898 whole entry): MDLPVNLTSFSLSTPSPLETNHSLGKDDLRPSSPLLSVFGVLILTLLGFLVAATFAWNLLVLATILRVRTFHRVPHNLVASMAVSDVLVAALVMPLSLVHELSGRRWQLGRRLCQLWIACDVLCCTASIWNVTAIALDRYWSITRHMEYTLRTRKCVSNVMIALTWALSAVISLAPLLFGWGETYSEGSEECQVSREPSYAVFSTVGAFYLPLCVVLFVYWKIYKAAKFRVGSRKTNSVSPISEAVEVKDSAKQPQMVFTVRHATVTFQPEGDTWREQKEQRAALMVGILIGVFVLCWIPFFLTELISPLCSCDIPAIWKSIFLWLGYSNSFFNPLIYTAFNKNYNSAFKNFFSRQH
The experiment is described as follows: h5-HT5A-[3H]5-CT binding assay. As to conditions: membranes of HEK293 cells expressing h5-HT5A; 2.5 nM [3H]5-CT; read-out: Binding affinity 5-HT5A (Ki). As for the experimental part: 1. h5-HT5A-[^3H]5-CT Binding Assay
Membranes of HEK293 cells which permanently express the h5-HT5A receptor gene were incubated in 100 mM tris-HCl buffer (pH 7.7) containing 1 mM EDTA, in the presence of 2.5 nM [^3H]5-CT (total volume 600 μL). The total binding is defined as the binding that is observed when the membranes are incubated in the presence of only the radioligand. The inhibition induced by the compound is determined by incubation of cell membranes in the presence of the radioligand and various concentrations of the compound of interest. Nonspecific binding is defined as the [^3H]5-CT binding obtained by incubation of the membranes, the same as for the total binding, but in the presence of 10 μM methiothepine. Following incubation for 75 min at 30° C., the membrane suspension was filtered through a GF/B-Filter coated with 0.03% PEI, using a Skatron® harvesting system. The residual radioactivity in the filter was quantified by liquid scintillation counting.
Various concentrations of the test substances were used in both assays, and the Ki or IC50 values were determined.

For the molecule `COc1cccc(Cl)c1Cn1cc(-c2ccc(OC(F)(F)F)cc2)nc1N` [Example 29, 1-(2-Chloro-6-methoxybenzyl)-4-(4-trifluoromethoxyphenyl)-1H-imidazole-2-ylamine], the Ki was less than 600 nM. The figure for `COc1ccccc1Cn1cc(-c2cccc([N+](=O)[O-])c2)nc1N` [Example 45, 1-(2-Methoxybenzyl)-4-(3-nitrophenyl)-1H-imidazole-2-ylamine] is less than 600 nM.

Turning to `COc1ccccc1Cn1cc(-c2ccc(C#N)s2)nc1N` [Example 50, 5-[2-Amino-1-(2-methoxybenzyl)-1H-imidazole-4-yl]thiophene-2-carbonitrile], the Ki is less than 600 nM.

With `COc1ccccc1Cn1cc(-c2cccc(NC(=O)c3ccccc3)c2)nc1N` [Example 58, N-{3-[2-Amino-1-(2-methoxybenzyl)-1H-imidazole-4-yl]phenyl}benzamide], the inhibitory constant (Ki) was less than 600 nM. With `CCOC(=O)c1cn(Cc2ccccc2OC)c(N)n1` [Example 21, 2-Amino-1-(2-methoxybenzyl)-1H-imidazole-4-carboxylic acid ethyl ester], the inhibition constant (Ki) was greater than 600 nM. Consider `COc1cccc(OC)c1Cn1cc(-c2ccc(C#N)cc2)nc1N` [Example 25, 4-[2-Amino-1-(2,6-dimethoxybenzyl)-1H-imidazole-4-yl]benzonitrile hydrochloride], for which the Ki was less than 600 nM. The value for `COc1cccc(Cl)c1Cn1cc(-c2ccsc2)nc1N` [Example 28, 1-(2-Chloro-6-methoxybenzyl)-4-thiophene-3-yl-1H-imidazole-2-ylamine] was less than 600 nM; that for `COc1ccccc1Cn1cc(-c2ccc(Br)cc2)nc1N` [Example 1, 4-(4-Bromophenyl)-1-(2-methoxybenzyl)-1H-imidazole-2-ylamine] was less than 600 nM; that for `COc1ccccc1-c1cn(Cc2c(OC)cccc2OC)c(N)n1` [Example 26, 1-(2,6-Dimethoxybenzyl)-4-(2-methoxyphenyl)-1H-imidazole-2-ylamine hydrochloride] was less than 600 nM. The figure for `COc1ccccc1Cn1cc(-c2ccc(F)cc2)nc1N` [Example 12, 4-(4-Fluorophenyl)-1-(2-methoxybenzyl)-1H-imidazole-2-ylamine] is less than 600 nM.

For `COc1ccccc1Cn1cc(C(C)(C)C)nc1N` [Example 11, 4-tert-Butyl-1-(2-methoxybenzyl)-1H-imidazole-2-ylamine], the Ki is greater than 600 nM.

`COc1ccccc1Cn1cc(-c2cccc(NS(C)(=O)=O)c2)nc1N` [Example 57, N-{3-[2-Amino-1-(2-methoxybenzyl)-1H-imidazole-4-yl]phenyl}methanesulfonamide]: the Ki is less than 600 nM. The figure for `COc1ccccc1Cn1cc(-c2ccc(C)o2)nc1N` [Example 36, 1-(2-Methoxybenzyl)-4-(5-methylfuran-2-yl)-1H-imidazole-2-ylamine] is less than 600 nM.

Turning to `COc1ccccc1Cn1cc(-c2ccc(OC(F)(F)F)cc2)nc1N` [Example 22, 1-(2-Methoxybenzyl)-4-(4-trifluoromethoxyphenyl)-1H-imidazole-2-ylamine], the inhibition constant Ki is less than 600 nM. The figure for `COc1ccccc1Cc1cn(-c2ccccc2)nc1N` [Example 4, 4-(2-Methoxybenzyl)-1-phenyl-1H-pyrazole-3-ylamine] is greater than 600 nM; for `COc1ccccc1Cn1cc(-c2ccc(OC(F)F)cc2)nc1N` [Example 46, 4-(4-Difluoromethoxyphenyl)-1-(2-methoxybenzyl)-1H-imidazole-2-ylamine] it is less than 600 nM.

For the molecule `COc1ccccc1Cn1cc(-c2ccc(Cl)cc2Cl)nc1N` [Example 35, 4-(2,4-Dichlorophenyl)-1-(2-methoxybenzyl)-1H-imidazole-2-ylamine hydrochloride], the Ki is less than 600 nM.

Consider `COc1cccc(-c2cn(Cc3ccccc3OC)c(N)n2)c1` [Example 23, 1-(2-Methoxybenzyl)-4-(3-methoxyphenyl)-1H-imidazole-2-ylamine], for which the Ki is less than 600 nM. The figure for `COc1ccccc1Cn1cc(-c2csc3ccccc23)nc1N` [Example 17, 4-Benzo[b]thiophene-3-yl-1-(2-methoxybenzyl)-1H-imidazole-2-ylamine hydrochloride] is less than 600 nM; for `COc1cccc(OC)c1Cn1cc(-c2ccc(C)c(C)c2)nc1N` [Example 40, 1-(2,6-Dimethoxybenzyl)-4-(3,4-dimethylphenyl)-1H-imidazole-2-ylamine hydrochloride] it is less than 600 nM. The value for `COc1ccccc1Cn1c(N)nc(-c2ccccc2)c1C` [Example 14, 1-(2-Methoxybenzyl)-5-methyl-4-phenyl-1H-imidazole-2-ylamine] was less than 600 nM.
